Experimental findings from EP0829478A2, “N-Benzylimidazolium and N-benzyltriazolium derivatives, their preparation and their use as antifungal and antimycotic agents” (F. HOFFMANN-LA ROCHE AG, priority 1996, dated 1998) are described below.

Structures are written as SMILES. Where a name gives a salt, the structure may show the parent alone. Read-outs that look alike come from different tables or passages of the source.

The nature of data set [1]: Water solubility (Table 1). It is filed as physicochemical.
The next data set relates to Candida albicans. The data set can be described thus: Systemic candidiasis model in rats, ED50. It is filed as in vivo. As to conditions: 336 h. The source says:
(§1) Male Fisher rats, strain F344/DuCrj, were employed for experimental infection models such as systemic candidiasis, systemic aspergillosis and pulmonary aspergillosis model. Immunocompetent 4 weeks old rats were used for systemic candidiasis or systemic aspergillosis which occurred her infection with Candida albicans conidia of 5x10^6/rat or with Aspergillus fumigatus conidia of 6x10^5/rat via tail vein. Otherwise for pulmonary aspergillosis model, rats had been immunosuppressed with cortisone acetate treatments prior to infection with 2x10^5/rat intratrachially. Treatments were given twice on the first day and once daily on following 4 days both for systemic and pulmonary aspergillosis (Ib.i.+4q.d.), for systemic candidiasis rats were treated at 0, 4, 24, and 48 h after infection (Ib.i.d.+2q.d.).

The subject of data set [2] is Aspergillus fumigatus. The data set can be described thus: Pulmonary aspergillosis model in immunosuppressed rats, ED50. It is filed as in vivo. To be noted: 336 h.
Source text: as §1

Data set [3] relates to Aspergillus fumigatus. The data set can be described thus: Systemic aspergillosis model in rats, ED50. It is filed as in vivo. As to conditions: 336 h.
Source text: as §1

Data set [4] can be described thus: Conversion of the azolium compounds to ketoconazole / itraconazole on incubation in human plasma. Type of data set: in vitro ADME. To be noted: 10µg/ml, 37°C; for metabolised at 5 min / remaining at 5 min: incubation time 5 min. As to the method:
The compounds of formula I were incubated with human plasma at a concentration of 10µg/ml at 37°C for up to 120 min.

The mark [5] stands for this setting: solvent a = distilled water, read-out: solubility.
The mark [6] stands for this setting: iv, read-out: Effective dose 50% (ED50) Systemic candidiasis i.v., male Fisher rats F344/DuCrj, immunocompetent, i.v., treated at 0, 4, 24 and 48 h after infection, determined on day 14 after infection.
Setting [7] is: po, read-out: Effective dose 50% (ED50) Systemic candidiasis p.o., male Fisher rats F344/DuCrj, immunocompetent, p.o., treated at 0, 4, 24 and 48 h after infection, determined on day 14 after infection.
The mark [8] stands for this setting: iv, read-out: Effective dose 50% (ED50) Pulmonay aspergillosis i.v., male Fisher rats F344/DuCrj immunosuppressed with cortisone acetate, i.v., twice on first day, once daily on following 4 days, determined on day 14 after infection.
The mark [9] stands for this setting: po, read-out: Effective dose 50% (ED50) Pulmonay aspergillosis p.o., male Fisher rats F344/DuCrj immunosuppressed with cortisone acetate, p.o., twice on first day, once daily on following 4 days, determined on day 14 after infection.
Setting [10] is: iv, read-out: Effective dose 50% (ED50) Systemic aspergillosis i.v., male Fisher rats F344/DuCrj, immunocompetent, i.v., twice on first day, once daily on following 4 days, determined on day 14 after infection.
Where [11] appears, read: po, read-out: Effective dose 50% (ED50) Systemic aspergillosis p.o., male Fisher rats F344/DuCrj, immunocompetent, p.o., twice on first day, once daily on following 4 days, determined on day 14 after infection.
The mark [12] stands for this setting: ketoconazole formed, read-out: Observed (%) KCZ.
Setting [13] is: remaining parent compound, read-out: Observed (%) Comp. I.
The mark [14] stands for this setting: mcilvaine buffer, pH 8.02, aqueous buffer.

In general, solubility refers to how much of the substance goes into solution per volume.

As for `COc1cc(C[n+]2ccn(CC3(c4ccc(Cl)cc4Cl)OCC(COc4ccc(N5CCN(C(C)=O)CC5)cc4)O3)c2)ccc1OC(C)=O` (centres unmarked) [Example 12], the solubility in data set [1] (setting [5]) amounted to 5000 µg/mL.
As for `CC(=O)N1CCN(c2ccc(OC[C@H]3CO[C@](Cn4cc[n+](Cc5cc(C)c(OC(=O)C(C)C)c(C)c5)c4)(c4ccc(Cl)cc4Cl)O3)cc2)CC1.[Br-]` (relative stereo) [Example 5, 3-[(2R*,4S*)-4-[4-(4-Acetyl-piperazin-1-yl)-phenoxymethyl]-2-(2,4-dichloro-phenyl)-[1,3]dioxolan-2-ylmethyl]-1-(4-isobutyryloxy-3,5-dimethyl-benzyl)-3H-imidazol-1-ium bromide], in data set [1] (distilled water, water), the solubility was > 1000 µg/mL.
In the case of `Cc1cc(C[n+]2cnn(C[C@](O)(c3ccc(F)cc3F)[C@@H](C)c3nc(-c4ccc(C#N)cc4)cs3)c2)cc(C)c1OC(=O)[C@@H]1CCCN1` [Example 16, 1-[(2R,3R)-3-[4-(4-Cyanophenyl)-thiazol-2-yl]-2-(2,4-difluorophenyl)-2-hydroxybutyl]-4-[(S)-3,5-dimethyl-4-(pyrrolidine-2-carbonyloxy)-benzyl]-1H-[1,2,4]triazol-4-ium bromide trifluoroacetic acid salt], the ED50 is 3.5 µmol/kg with Candida albicans (setting [6]); < 2.1 µmol/kg in the data set with Candida albicans (setting [7]); 17 µmol/kg with Aspergillus fumigatus [2] (setting [8]); 18 µmol/kg with Aspergillus fumigatus [2] (setting [9]); > 35 µmol/kg with Aspergillus fumigatus [3] (setting [10]); > 55 µmol/kg with Aspergillus fumigatus [3] (setting [11]).
For the compound `CC(=O)Oc1ccc(C[n+]2ccn(C[C@]3(c4ccc(Cl)cc4Cl)OC[C@H](COc4ccc(N5CCN(C(C)=O)CC5)cc4)O3)c2)cc1` (relative stereo) [Example 9, 1-(4-Acetoxybenzyl)-3-[(2R*,4S*)-4-[4-(4-acetylpiperazin-1-yl)phenoxymethyl]-2-(2,4-dichlorophenyl)-[1,3]dioxolan-2-ylmethyl]-3H-imidazol-1-ium bromide], the metabolised at 5 min in data set [4] (setting [12]) was found to be 89%. The remaining at 5 min in data set [4] (setting [13]) was < 5%.
Turning to `CCC(C)n1ncn(-c2ccc(N3CCN(c4ccc(OCC5COC(Cn6c[n+](Cc7cc(C)c(OC(C)=O)c(C)c7)cn6)(c6ccc(Cl)cc6Cl)O5)cc4)CC3)cc2)c1=O` (centres unmarked) [Example 1], in data set [4] (itraconazole formed, incubation time 60 min, read-out: Observed (%) ICZ), the metabolised at 1 h amounted to 28%. For the same compound, the remaining at 1 h in data set [4] (remaining parent compound, incubation time 60 min, read-out: Observed (%) Comp. I) stood at 47%.
For the compound `CCCCCC(=O)Oc1c(C)cc(C[n+]2cnn(CC3(c4ccc(Cl)cc4Cl)OCC(COc4ccc(N5CCN(c6ccc(-n7cnn(C(C)CC)c7=O)cc6)CC5)cc4)O3)c2)cc1C` (racemic) [Example 13, dl-1-[4-(4-{4-[4-(1-sec-butyl-5-oxo-1,5-dihydro-[1,2,4]triazol-4-yl)-phenyl]-piperazin-1-yl}-phenoxymethyl)-2-(2,4-dichloro-phenyl)-[1,3]dioxolan-2-ylmethyl]-4-(4-hexanoyloxy-3,5-dimethyl-benzyl)-1H-[1,2,4]triazol-4-ium methanesulfonate], in data set [1] (mcilvaine buffer, pH 8.02, aqueous buffer, solvent b = Mellvaine buffer(pH8.02), read-out: solubility), the solubility is 500 µg/mL.
On to `CC(=O)Oc1c(C)cc(C[n+]2ccn(CC3(c4ccc(Cl)cc4Cl)OCC(COc4ccc(N5CCN(C(C)=O)CC5)cc4)O3)c2)cc1C` (stereo not drawn) [Example 4, 1-(4-Acetoxy-3,5-dimethyl-benxyl)-3-[(2R*,4S*)-4-[4-(4-acetyl-piperazin-1-yl)-phenoxymethyl]-2-(2,4-dichloro-phenyl)-[1,3]dioxolan-2-ylmethyl]-3H-imidazol-1-ium bromide], for which, in data set [4] (ketoconazole formed, incubation time 20 min, read-out: Observed (%) KCZ), the metabolised at 20 min amounted to 74%. In data set [4] (remaining parent compound, incubation time 20 min, read-out: Observed (%) Comp. I), the remaining at 20 min amounted to 19%.
As to `CCC(C)n1ncn(-c2ccc(N3CCN(c4ccc(OCC5COC(Cn6c[n+](Cc7cc(C)c(OC(=O)c8ccccc8)c(C)c7)cn6)(c6ccc(Cl)cc6Cl)O5)cc4)CC3)cc2)c1=O.[Br-]` (centres unmarked) [Example 3, 4-(4-Benzoyloxy-3,5-dimethylbenzyl)-1-[4-(4-{4-[4-(1-(2-butyl)-5-oxo-1,5-dihydro-[1,2,4]triazol-4-yl)phenyl]piperazin-1-yl}phenoxymethyl)-2-(2,4-dichlorophenyl)-[1,3]dioxolan-2-ylmethyl]-1H-[1,2,4]triazol-4-ium bromide], the solubility in data set [1] (setting [14]) was 400 µg/mL.
Take `CC(=O)Oc1c(C)cc(C[n+]2ccn(CC(OCc3ccc(Cl)cc3Cl)c3ccc(Cl)cc3Cl)c2)cc1C` (racemic) [Example 7, dl-1-(4-Acetoxy-3,5-dimethyl-benzyl)-3-[2-(2,4-dichloro-benzyloxy)-2-(2,4-dichloro-phenyl)-ethyl]-3H-imidazol-1-ium bromide]: the solubility in data set [1] (setting [5]) was > 1000 µg/mL.
As to `CCC(C)n1ncn(-c2ccc(N3CCN(c4ccc(OCC5COC(Cn6c[n+](Cc7cc(C)c(OC(=O)c8cccnc8)c(C)c7)cn6)(c6ccc(Cl)cc6Cl)O5)cc4)CC3)cc2)c1=O.[Br-]` (centres unmarked) [Example 2, 4-(4-(Pyridine-3-carbonyloxy)-3,5-dimethylbenzyl)-1-[4-(4-{4-(4-(1-(2-butyl)-5-oxo-1,5-dihydro-[1,2,4]triazol-4-yl)phenyl]piperazin-1-yl}phenoxymethyl)-2-(2,4-dichlorophenyl)-[1,3]dioxolan-2-ylmethyl]-1H-[1,2,4]triazol-4-ium bromide], the solubility in data set [1] (setting [14]) stood at 400 µg/mL.
Take `CC(=O)Oc1ccc(C[n+]2ccn(C[C@]3(c4ccc(Cl)cc4Cl)OC[C@H](COc4ccc(N5CCN(C(C)=O)CC5)cc4)O3)c2)cc1C` (relative stereo) [Example 11, 1-(4-Acetoxy-3-methyl-benzyl)-3-[(2R*,4S*)-4-[4-(4-acetyl-piperazin-1-yl)-phenoxymethyl]-2-(2,4-dichloro-phenyl)-[1,3]dioxolan-2-ylmethyl]-3H-imidazol-1-ium bromide]: in data set [4] (setting [12]), the metabolised at 5 min came to 100%. In addition, the remaining at 5 min in data set [4] (setting [13]) is < 5%.
As to `OC(Cn1cncn1)(Cn1cncn1)c1ccc(F)cc1F` [Fluconazole, reference compound], the ED50 with Candida albicans (po, read-out: Effective dose 50% (ED50) Systemic candidiasis p.o.) was > 2.9 µmol/kg.
The compound `CO[C@H]1[C@@H](Cn2c[n+](Cc3cc(C)c(OC(C)=O)c(C)c3)cn2)[C@H](CCc2ccc(C)cc2)CCC1(C)C.[Br-]` [Example 8, 4-(4-acetoxy-3,5-dimethyl-benzyl)-1-[(1R,2S,6R)-2-methoxy-3,3-dimethyl-6-(2-p-tolyl-ethyl)-cyclohexylmethyl]-1H-[1,2,4]triazol-4-ium bromide] displayed a solubility in data set [1] (distilled water, water) of 14000 µg/mL.
As to `CC(=O)Oc1c(Cl)cc(C[n+]2ccn(CC3(c4ccc(Cl)cc4Cl)OCC(COc4ccc(N5CCN(C(C)=O)CC5)cc4)O3)c2)cc1Cl` (stereo not drawn) [Example 6, 1-(4-Acetoxy-3,5-dichloro-benzyl)-3-[(2R*,4S*)-[4-[4-(4-acetyl-piperazin-1-yl)-phenoxymethyl]-2-(2,4-dichloro-phenyl)-[1,3]dioxolan-2-ylmethyl]-3H-imidazol-1-ium bromide], the solubility in data set [1] (setting [5]) came to 6500 µg/mL.
For the compound `CNCC(=O)Oc1c(C)cc(C[n+]2cnn(C[C@](O)(c3ccc(F)cc3F)[C@@H](C)c3nc(-c4ccc(C#N)cc4)cs3)c2)cc1C` [Example 23, 1-[(2R,3R)-3-[4-(4-Cyanophenyl)thiazol-2-yl]-2-(2,4-difluorophenyl)-2-hydroxybutyl]-4-[3,5-dimethyl-4-[(methylamino)acetoxy]benzyl]-1H-[1,2,4]triazol-4-ium bromide trifluoroacetic acid salt], the ED50 in the data set on Candida albicans (setting [6]) came out at 4.6 µmol/kg; in the data set with Candida albicans (setting [7]), 4.7 µmol/kg; in the data set with Aspergillus fumigatus [2] (setting [8]) it was 8 µmol/kg; in the data set with Aspergillus fumigatus [2] (setting [9]), 17 µmol/kg; in the data set with Aspergillus fumigatus [3] (setting [10]), 17 µmol/kg; in the data set with Aspergillus fumigatus [3] (setting [11]), 19 µmol/kg.
Turning to `CCC(C)n1ncn(-c2ccc(N3CCN(c4ccc(OCC5COC(Cn6cncn6)(c6ccc(Cl)cc6Cl)O5)cc4)CC3)cc2)c1=O` (centres unmarked) [Itraconazole, reference compound], the ED50 in the data set with Aspergillus fumigatus [3] (po, read-out: Effective dose 50% (ED50) Systemic aspergillosis p.o.) was found to be 17 µmol/kg.
In the case of `CC(=O)N1CCN(c2ccc(OCC3COC(Cn4cc[n+](Cc5ccc(OC(=O)C(C)(C)C)cc5)c4)(c4ccc(Cl)cc4Cl)O3)cc2)CC1` (stereo not drawn) [Example 10, 3-[(2R*,4S*)-4-[4-(4-Acetylpiperazin-1-yl)phenoxymethyl]-2-(2,4-dichlorophenyl)-[1,3]dioxolan-2-ylmethyl]-1-[4-(2,2-dimethylpropionyloxy)benzyl]-3H-imidazol-1-ium bromides], the metabolised at 10 min in data set [4] (ketoconazole formed, incubation time 10 min, read-out: Observed (%) KCZ) was 80%. Further, the remaining at 10 min in data set [4] (remaining parent compound, incubation time 10 min, read-out: Observed (%) Comp. I) was < 5%.
